Target: Histone deacetylase 1 (Homo sapiens, UniProt Q13547)
Test: Flag Assay: Novel compounds were tested for their ability to inhibit histone deacetylase, subtype 1 (HDAC1) using an in vitro deacetylation assay. The enzyme source for this assay was an epitope-tagged human HDAC1 complex immuno-purified from stably expressing mammalian cells. The substrate consisted of a commercial product containing an acetylated lysine side chain (BIOMOL Research Laboratories, Inc., Plymouth Meeting, Pa.). Upon deacetylation of the substrate by incubation with the purified HDAC1 complex, a fluorophore is produced that is directly proportional to the level of deacetylation.

Chain of Histone deacetylase 1 (Q13547 whole entry): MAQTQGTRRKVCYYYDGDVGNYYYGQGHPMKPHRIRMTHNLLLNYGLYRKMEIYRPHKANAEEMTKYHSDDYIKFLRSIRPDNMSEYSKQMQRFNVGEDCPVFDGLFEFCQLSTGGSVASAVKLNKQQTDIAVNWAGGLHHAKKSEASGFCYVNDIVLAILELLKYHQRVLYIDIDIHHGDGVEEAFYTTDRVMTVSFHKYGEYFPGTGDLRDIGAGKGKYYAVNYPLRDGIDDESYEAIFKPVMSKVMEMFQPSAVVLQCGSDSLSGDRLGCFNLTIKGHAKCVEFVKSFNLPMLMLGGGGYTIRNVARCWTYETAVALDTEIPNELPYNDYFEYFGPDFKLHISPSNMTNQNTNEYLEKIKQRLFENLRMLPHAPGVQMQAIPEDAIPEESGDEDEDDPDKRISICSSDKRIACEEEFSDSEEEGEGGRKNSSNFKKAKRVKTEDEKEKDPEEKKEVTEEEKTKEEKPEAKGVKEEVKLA

Work on O=C(Nc1cc(-c2ccccc2)ccc1O)c1ccc(CNCCc2c[nH]cn2)cc1 yielded an IC50 of 2500 nM.

From ChEMBL document CHEMBL3638533, “4-carboxybenzylamino derivatives as histone deacetylase inhibitors” (2015)
